Results from ChEMBL document CHEMBL3425471, “Design, synthesis and biological evaluation of novel pyrazoline-containing derivatives as potential tubulin assembling inhibitors” (Eur J Med Chem, 2015).

Columns and labels:
Tubulin = Tubulin (Bos taurus, UniProt Q6B856+Q862L2+Q862F3); test: Inhibition of bovine brain tubulin polymerization after 20 mins by turbidimetric analysis
MCF7 = test: cells; details: Homo sapiens, MCF7, 24 h
Description: Antiproliferative activity against human MCF7 cells assessed as reduction in cell viability after 24 hrs by MTT assay

A549 = test: cells; details: Homo sapiens, A549, 24 h
Description: Antiproliferative activity against human A549 cells assessed as reduction in cell viability after 24 hrs by MTT assay

HepG2 = test: cells; details: Homo sapiens, HepG2, 24 h
Description: Antiproliferative activity against human HepG2 cells assessed as reduction in cell viability after 24 hrs by MTT assay

SMILES	IC50 (Tubulin)	IC50 (MCF7)	IC50 (A549)	IC50 (HepG2)
O=C(c1ccc(Br)cc1)N1N=C(c2ccc(F)cc2)CC1c1ccc2c(c1)OCO2 (stereo unspecified)	> 40 µM	5.11 µM	2.45 µM	> 10 µM
COc1ccccc1C1=NN(C(=O)c2ccc(Br)cc2)C(c2ccc3c(c2)OCO3)C1 (stereo unspecified)	> 40 µM	> 10 µM	> 10 µM	> 10 µM
COc1ccc(/C=C\c2cc(OC)c(OC)c(OC)c2)cc1O [COMBRETASTATIN A4]	–	–	0.14 µM	0.17 µM
COc1cc(C2=NN(C(=O)c3ccc(Cl)cc3)C(c3ccc4c(c3)OCO4)C2)cc(OC)c1OC (stereo unspecified)	21.73 µM	4.77 µM	4.26 µM	2.14 µM
COc1ccc(C2=NN(C(=O)c3ccc(Cl)cc3)C(c3ccc4c(c3)OCO4)C2)cc1 (stereo unspecified)	> 40 µM	8.66 µM	7.14 µM	8.38 µM
COc1cc(C2=NN(C(=O)c3ccc(Br)cc3)C(c3ccc4c(c3)OCO4)C2)cc(OC)c1OC (stereo unspecified)	25.06 µM	5.26 µM	4.16 µM	6.22 µM
COc1ccc(C(=O)N2N=C(c3ccc(OC)cc3)CC2c2ccc3c(c2)OCO3)cc1 (stereo unspecified)	25.79 µM	6.41 µM	4.08 µM	5.05 µM
COc1ccc(C2=NN(C(=O)c3ccc(OC)c(OC)c3)C(c3ccc4c(c3)OCO4)C2)cc1 (stereo unspecified)	15.73 µM	3.56 µM	2.73 µM	3.77 µM
O=C(c1ccc(Br)cc1)N1N=C(c2ccc(Cl)cc2)CC1c1ccc2c(c1)OCO2 (stereo unspecified)	> 40 µM	> 10 µM	> 10 µM	> 10 µM
COc1cccc(C2=NN(C(=O)c3ccc(Br)cc3)C(c3ccc4c(c3)OCO4)C2)c1 (stereo unspecified)	> 40 µM	> 10 µM	> 10 µM	> 10 µM
CCOc1ccc(C2=NN(C(=O)c3ccc(Br)cc3)C(c3ccc4c(c3)OCO4)C2)cc1 (stereo unspecified)	> 40 µM	> 10 µM	> 10 µM	> 10 µM

The remaining compounds from weak to strong by IC50 (MCF7), led by results:

IC50 (Tubulin)	IC50 (MCF7)	IC50 (A549)	IC50 (HepG2)	SMILES
15.63 µM	3.38 µM	2.19 µM	2.24 µM	COc1cc(C(=O)N2N=C(c3ccccc3)CC2c2ccc3c(c2)OCO3)cc(OC)c1OC (stereo unspecified)
10.11 µM	2.35 µM	1.14 µM	2.91 µM	COc1cc(C(=O)N2N=C(c3ccc(C)cc3)CC2c2ccc3c(c2)OCO3)cc(OC)c1OC (stereo unspecified)
7.89 µM	0.32 µM	0.76 µM	0.25 µM	COc1cc(C(=O)N2N=C(c3ccc(F)cc3)CC2c2ccc3c(c2)OCO3)cc(OC)c1OC (stereo unspecified)
2.35 µM	0.21 µM	0.11 µM	0.12 µM	COc1ccccc1C1=NN(C(=O)c2cc(OC)c(OC)c(OC)c2)C(c2ccc3c(c2)OCO3)C1 (stereo unspecified)
2.19 µM	0.17 µM	0.09 µM	0.07 µM	CCOc1ccc(C2=NN(C(=O)c3cc(OC)c(OC)c(OC)c3)C(c3ccc4c(c3)OCO4)C2)cc1 (stereo unspecified)
1.91 µM	0.06 µM	0.09 µM	0.07 µM	COc1cccc(C2=NN(C(=O)c3cc(OC)c(OC)c(OC)c3)C(c3ccc4c(c3)OCO4)C2)c1 (stereo unspecified)
